Experimental data taken from US8716285B2, “N-hydroxy-benzamids for the treatment of cancer” (Hoffmann-La Roche Inc., priority 2010, dated 2014).
pEC50, pIC50: −log10 of the molar value.

Tests used:
[1] = test system: p21 promoter-luciferase construct; test: p21 reporter gene induction in HeLa cells transfected with p21 promoter-luciferase construct; type: cell-based; conditions: for p21 RP3: relative gene level of p21 induced compared to MS275 at 3 μM; for p21 RP10: relative level of p21 induced compared to MS275 at 10 μM; for p21 RP30: relative level of p21 induced compared to MS275 at 30 μM
Method: As a surrogate for in-cell HDAC1/2/3 inhibition, p21 induction was used as a counterscreen to evaluate the selectivity of the compounds in the present invention toward HDAC6 or HDAC8.
The novel compounds of the present invention were tested for their ability to induce p21 gene expression using a reporter gene assay involving HeLa cells transfected with a p21 promoter-luciferase construct. The p21 promoter contained the Sp1/Sp3 binding site for HDAC but not the upstream p53 binding site. Briefly, the day before transfection, HeLa cells were seeded at 11,000 cells/well in a 96-well culture plate and incubated at 37° C. in 5% CO2 overnight. A transfection media was prepared prior to transfection according to the following procedure: (1) 5 μl serum-free DMEM, 0.15 μl Fugene 6 reagent, 40 ng p21-luc, 10 ng GFP were mixed gently and incubated at rt for 30 minutes; (2), then 98 μl DMEM (with 10% FBS, 1% penicillin and streptomycin) was added to the DNA: Fugene 6 reagent complex and mixed gently. For transfection, the medium was removed and replaced with 100 μl/well transfection media which was prepared according to the procedure above. After incubating the cells for 24 hours at 37° C. in 5% CO2, fresh media and test compounds were added to the wells and the cells further incubated for 15 hours at 37° C. in 5% CO2. Cells were lysed by adding 80 μl/well of a cell culture lysis reagent (Promega). […] 100 μl luciferase assay reagent (Promega) was then added to every 20 μl cell lysate for luminometer detection. […] Induction activity for specific representative compounds can be found in Table 3.

recombinant human HDAC8 = recombinant human HDAC8 (Homo sapiens (Human), UniProt Q9BY41); test: HDAC8 inhibition: recombinant HDAC8 fluorometric assay; type: biochemical; conditions: recombinant human HDAC8, substrate Ac-Arg-His-Lys-Lys(ε-acetyl)-AMC
Method: A competitive inhibitory assay of HDAC8 was carried out by using recombinant HDAC8 and a commercial substrate Ac-Arg-His-Lys-Lys(ε-acetyl)-AMC.
Compounds were tested for their ability to inhibit histone deacetylase 8 using an in vitro deacetylation assay. The enzyme source for this assay was recombinant human HDAC8 protein expressed and purified from insect cells. […] The substrate consisted of a commercial product Ac-Arg-His-Lys-Lys(ε-acetyl)-AMC (substrate is available from Cayman Chemical). […] In a detailed procedure, 8 μl of HDAC8 enzyme solution (0.125 μg/μl) was transferred to assay plates (CORNING 3676). 1 μl of half-log diluted compounds were added into wells and incubated for 15 min at rt. After that, 8 μl of substrate solution was transferred to the wells and incubated for 30 min at rt. After deacetylation of the substrate by incubation with HDAC8 enzyme, subsequent exposure to a developing reagent produced a fluorophore that was directly proportional to the level of deacetylation. So 4 μl of developer regent (Cayman 10006394) was added into the wells in the assay plates and incubated for 15 min. The fluorescence signal was measured by a FlexStation3 plate reader (excitation wave length 340-360 nm; emission wave length 440-465 nm). The IC50 was calculated after normalization and curve fitting using XLfit4.0 software. Inhibition %=[Mean(top)−signal(sample)]*100/[Mean(top)−Mean(bottom)].

HDAC6 = HDAC6 (Homo sapiens (Human), UniProt Q9UBN7); test: Tubulin acetylation cytoblot assay (A549 cells); type: cell-based; conditions: 17-18 h, concentration for 50% induction of acetylated tubulin, read-out: Tub-ac EC50
Method: Tubulin acetylation is a PD marker for HDAC6 inhibition. The extent of tubulin acetylation represents the inhibitory effect on HDAC6.
Novel compounds were tested for their ability to inhibit HDAC6 using a cell-based deacetylation assay. Tubulin acetylation was detected by the anti-acetylated tubulin antibody (Sigma) and horse radish peroxidase (HRP) conjugated secondary antibody (KangChen Bio. Tech.). […] 20 μl of diluted compound solution was transferred to the cell culture plate and incubated for 17-18 h. After medium removal and fixation by formaldehyde (3.7% paraformaldehyde in TBS), the cells in the plates were treated with 180 μl of −20° C. MeOH and incubated for 5 min at rt. The cell lysis was incubated with 75 μl of primary anti-acetylated tubulin antibody and secondary HRP conjugated antibody solution (1:750 anti-acetylated tubulin, 1:750 HRP conjugated anti-mouse IgG in antibody dilution buffer not containing sodium azide) for 4 h at 4° C. By adding the HRP substrate, enhanced chemiluminescence (ECL) reagent (GE Healthcare) generated luminescence corresponding to the level of tubulin acetylation. So that 75 μl of ECL was added into the wells and the luminescence from each well was immediately quantified by the plate reader. Based on the luminescence reading, the IC50s against HDAC6 of the tested compounds were calculated by plotting the curve with XLfit4.0 software. Inhibition %=[signal(sample)−Mean(bottom)]*100/[Mean(top)−Mean(bottom)]

Sequence of HDAC6 (Q9UBN7 whole entry): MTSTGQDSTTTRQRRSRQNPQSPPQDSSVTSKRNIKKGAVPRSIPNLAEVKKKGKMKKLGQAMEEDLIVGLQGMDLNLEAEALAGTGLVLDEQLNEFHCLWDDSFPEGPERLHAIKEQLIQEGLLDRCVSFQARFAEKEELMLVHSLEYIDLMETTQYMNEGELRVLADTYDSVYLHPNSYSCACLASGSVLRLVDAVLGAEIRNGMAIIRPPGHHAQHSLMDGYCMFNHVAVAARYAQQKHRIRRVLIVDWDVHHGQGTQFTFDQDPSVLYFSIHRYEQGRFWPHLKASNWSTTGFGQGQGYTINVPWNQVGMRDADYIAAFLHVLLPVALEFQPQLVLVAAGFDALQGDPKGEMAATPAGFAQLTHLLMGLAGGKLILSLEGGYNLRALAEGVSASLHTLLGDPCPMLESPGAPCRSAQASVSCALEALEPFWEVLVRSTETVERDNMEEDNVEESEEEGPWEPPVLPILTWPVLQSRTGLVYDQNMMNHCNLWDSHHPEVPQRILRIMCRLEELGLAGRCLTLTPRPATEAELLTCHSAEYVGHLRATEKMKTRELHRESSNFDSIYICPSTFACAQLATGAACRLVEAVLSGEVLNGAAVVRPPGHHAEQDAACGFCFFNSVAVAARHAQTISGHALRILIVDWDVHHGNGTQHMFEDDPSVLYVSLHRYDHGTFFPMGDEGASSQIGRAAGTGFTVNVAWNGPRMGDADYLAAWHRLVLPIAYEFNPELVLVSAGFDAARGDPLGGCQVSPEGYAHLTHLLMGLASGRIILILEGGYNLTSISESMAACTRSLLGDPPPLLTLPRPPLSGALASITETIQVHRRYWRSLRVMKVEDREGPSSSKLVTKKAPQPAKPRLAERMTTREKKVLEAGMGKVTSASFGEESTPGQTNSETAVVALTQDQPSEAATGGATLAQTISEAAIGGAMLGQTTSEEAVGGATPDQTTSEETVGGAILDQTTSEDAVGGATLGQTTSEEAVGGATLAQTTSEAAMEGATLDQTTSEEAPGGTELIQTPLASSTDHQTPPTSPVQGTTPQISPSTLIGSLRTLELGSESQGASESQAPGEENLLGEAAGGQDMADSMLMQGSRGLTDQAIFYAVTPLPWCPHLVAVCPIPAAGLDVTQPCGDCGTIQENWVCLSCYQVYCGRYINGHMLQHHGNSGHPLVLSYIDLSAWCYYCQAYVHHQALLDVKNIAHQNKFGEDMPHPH
Sequence of recombinant human HDAC8 (Q9BY41 whole entry): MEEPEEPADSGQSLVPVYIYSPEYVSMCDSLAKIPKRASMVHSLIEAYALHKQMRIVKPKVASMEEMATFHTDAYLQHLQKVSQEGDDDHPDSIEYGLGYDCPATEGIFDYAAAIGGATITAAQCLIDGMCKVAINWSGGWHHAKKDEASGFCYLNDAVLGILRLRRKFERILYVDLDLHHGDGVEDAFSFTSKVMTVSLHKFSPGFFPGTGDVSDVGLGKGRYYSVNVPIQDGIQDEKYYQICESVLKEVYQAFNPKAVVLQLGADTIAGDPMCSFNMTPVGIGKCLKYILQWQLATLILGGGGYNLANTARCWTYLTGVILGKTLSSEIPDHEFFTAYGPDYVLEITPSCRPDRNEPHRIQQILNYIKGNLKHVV

Compound	p21 RP3 [1]	p21 RP10 [1]	p21 RP30 [1]	pIC50 (recombinant human HDAC8)	pEC50 (HDAC6)
O=C(NO)c1ccc2c(c1)CC(Nc1nccc(-c3ccc(F)cc3)n1)CC2 (stereo not shown) [Example 12, 7-[4-(4-Fluoro-phenyl)-pyrimidin-2-ylamino]-5,6,7,8-tetrahydro-naphthalene-2-carboxylic acid hydroxyamide]	0.10	0.00	−0.10	6.59	6.01
CN(C)c1cccc(-c2ccnc(NC3CCc4ccc(C(=O)NO)cc4C3)n2)c1 (stereo not shown) [Example 16, 7-[4-(3-Dimethylamino-phenyl)-pyrimidin-2-ylamino]-5,6,7,8-tetrahydro-naphthalene-2-carboxylic acid hydroxyamid]	1.50	0.40	0.30	6.10	5.46
Cc1ccc(-c2ccnc(NC3CCc4ccc(C(=O)NO)cc4C3)n2)c(F)c1 (stereo not shown) [Example 17, 7-[4-(2-Fluoro-4-methyl-phenyl)-pyrimidin-2-ylamino]-5,6,7,8-tetrahydro-naphthalene-2-carboxylic acid hydroxyamide]	−0.56	−0.47	−0.45	5.96	5.64
COc1ccc(-c2ccnc(NC3CCc4ccc(C(=O)NO)cc4C3)n2)c(OC)c1 (stereo not shown) [Example 18, 7-[4-(2,4-Dimethoxy-phenyl)-pyrimidin-2-ylamino]-5,6,7,8-tetrahydro-naphthalene-2-carboxylic acid hydroxyamide]	0.43	0.06	−0.06	5.91	5.86
O=C(NO)c1ccc2c(c1)CC(Nc1nccc(-c3ccc(C(F)(F)F)cc3)n1)CC2 (stereo not shown) [Example 19, 7-[4-(4-Trifluoromethyl-phenyl)-pyrimidin-2-ylamino]-5,6,7,8-tetrahydro-naphthalene-2-carboxylic acid hydroxyamid]	−0.18	−0.26	−0.29	5.77	5.30
O=C(NO)c1ccc2c(c1)CC(Nc1nccc(-c3ccc(Cl)cc3Cl)n1)CC2 (stereo not shown) [Example 20, 7-[4-(2,4-Dichloro-phenyl)-pyrimidin-2-ylamino]-5,6,7,8-tetrahydro-naphthalene-2-carboxylic acid hydroxyamide]	−0.71	−0.44	−0.40	5.82	5.21
Cc1cc(Cl)ccc1-c1ccnc(NC2CCc3ccc(C(=O)NO)cc3C2)n1 (stereo not shown) [Example 21, 7-[4-(4-Chloro-2-methyl-phenyl)-pyrimidin-2-ylamino]-5,6,7,8-tetrahydro-naphthalene-2-carboxylic acid hydroxyamide]	−0.24	−0.28	−0.32	5.67	5.02
O=C(NO)c1ccc2c(c1)CC(Nc1nccc(-c3ccc(F)c(Cl)c3)n1)CC2 (stereo not shown) [Example 22, 7-[4-(3-Chloro-4-fluoro-phenyl)-pyrimidin-2-ylamino]-5,6,7,8-tetrahydro-naphthalene-2-carboxylic acid hydroxyamide]	−0.87	−0.59	−0.52	5.65	5.22
Cc1ccc(-c2ccnc(NC3CCc4ccc(C(=O)NO)cc4C3)n2)cn1 (stereo not shown) [Example 25, 7-[4-(6-Methyl-pyridin-3-yl)-pyrimidin-2-ylamino]-5,6,7,8-tetrahydro-naphthalene-2-carboxylic acid hydroxyamide]	0.30	0.13	0.08	6.32	5.21
Cc1cncc(-c2ccnc(NC3CCc4ccc(C(=O)NO)cc4C3)n2)c1 (stereo not shown) [Example 26, 7-[4-(5-Methyl-pyridin-3-yl)-pyrimidin-2-ylamino]-5,6,7,8-tetrahydro-naphthalene-2-carboxylic acid hydroxyamide]	0.68	0.20	−0.05	6.28	5.82
COc1cncc(-c2ccnc(NC3CCc4ccc(C(=O)NO)cc4C3)n2)c1 (stereo not shown) [Example 27, 7-[4-(5-Methoxy-pyridin-3-yl)-pyrimidin-2-ylamino]-5,6,7,8-tetrahydro-naphthalene-2-carboxylic acid hydroxyamide]	0.35	0.05	−0.09	6.28	5.72
COc1ccc(-c2ccnc(NC3CCc4ccc(C(=O)NO)cc4C3)n2)cn1 (stereo not shown) [Example 28, 7-[4-(6-Methoxy-pyridin-3-yl)-pyrimidin-2-ylamino]-5,6,7,8-tetrahydro-naphthalene-2-carboxylic acid hydroxyamide]	−0.20	−0.19	−0.24	6.00	5.26
O=C(NO)c1ccc2c(c1)CC(Nc1nccc(-c3ccc(Cl)nc3)n1)CC2 (stereo not shown) [Example 29, 7-[4-(6-Chloro-pyridin-3-yl)-pyrimidin-2-ylamino]-5,6,7,8-tetrahydro-naphthalene-2-carboxylic acid hydroxyamide]	0.39	0.07	−0.02	6.05	5.84
O=C(NO)c1ccc2c(c1)CC(Nc1nccc(-c3cccnc3Cl)n1)CC2 (stereo not shown) [Example 30, 7-[4-(2-Chloro-pyridin-3-yl)-pyrimidin-2-ylamino]-5,6,7,8-tetrahydro-naphthalene-2-carboxylic acid hydroxyamide]	0.40	0.10	−0.03	6.29	6.22
